Laboratory results: PubChem BioAssay (NCI)
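Values below derive from 48-hour exposures of cells grown in 96-well plates, with endpoints linearly interpolated between the two concentrations bracketing the appropriate inhibition level. Abbreviation: GI50, concentration required for 50% inhibition of growth. TGI: concentration producing complete growth inhibition.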

Assays:
Test in all cases: inhibition of tumour cell growth, NCI panel, 48 h
UO-31 renal = test system: UO-31 renal
OVCAR-3 ovarian = test system: OVCAR-3 ovarian
BT-549 breast = test system: BT-549 breast
SF-295 CNS = test system: SF-295 CNS
EKVX NSCLC = test system: EKVX NSCLC
M14 melanoma = test system: M14 melanoma
K-562 leukemia = test system: K-562 leukemia
A549 NSCLC = test system: A549 NSCLC
SK-OV-3 ovarian = test system: SK-OV-3 ovarian
NCI/ADR-RES ovarian = test system: NCI/ADR-RES ovarian

| Compound | GI50 (UO-31 renal) | TGI (UO-31 renal) | GI50 (OVCAR-3 ovarian) | TGI (OVCAR-3 ovarian) | GI50 (BT-549 breast) | TGI (BT-549 breast) | GI50 (SF-295 CNS) | TGI (SF-295 CNS) | GI50 (EKVX NSCLC) | TGI (EKVX NSCLC) | GI50 (M14 melanoma) | TGI (M14 melanoma) | GI50 (K-562 leukemia) | TGI (K-562 leukemia) | GI50 (A549 NSCLC) | TGI (A549 NSCLC) | GI50 (SK-OV-3 ovarian) | TGI (SK-OV-3 ovarian) | GI50 (NCI/ADR-RES ovarian) | TGI (NCI/ADR-RES ovarian) |
| --- | --- | --- | --- | --- | --- | --- | --- | --- | --- | --- | --- | --- | --- | --- | --- | --- | --- | --- | --- | --- |
| O=C1C(=O)c2c(nc3ccc(C(F)(F)F)cn23)-c2ccccc21 | 0.164 µM | 0.345 µM | 0.179 µM | 0.443 µM | 0.186 µM | 0.442 µM | 0.436 µM | 0.855 µM | 0.178 µM | 0.396 µM | 0.18 µM | 0.329 µM | 0.175 µM | 0.787 µM | 0.513 µM | 1.23 µM | 0.551 µM | 1.12 µM | 0.23 µM | 0.581 µM |
| Nc1cc2c3c(cccc3c1)C(=O)N(CCN1CCCC1)C2=O | 2.35 µM | > 100 µM | 5.26 µM | 29.3 µM | 6.49 µM | 29.8 µM | 2.59 µM | 11.2 µM | 3.69 µM | 54.2 µM | 3.92 µM | 21.7 µM | 3.75 µM | > 37.6 µM | 1.79 µM | > 100 µM | 2.16 µM | 22.7 µM | 3.62 µM | > 51.4 µM |
| CCCCNC(c1ccc(Cl)cc1)C(O)c1ccc(Cl)cc1 (stereo unspecified) | 1.55 µM | 10.2 µM | 1.98 µM | 4.83 µM | 5.63 µM | 21.4 µM | 1.02 µM | 2.44 µM | 2.76 µM | 14.7 µM | 1.22 µM | 2.9 µM | 2.11 µM | 5.68 µM | 3.87 µM | 17.8 µM | 5.72 µM | 20 µM | 1.81 µM | 5.35 µM |
| COC1=CC(c2ccc[nH]2)=N/C1=C\c1[nH]c(C)c(C(=O)CCCCCCCCC(=O)O[C@H]2CC[C@H]3C4CCc5cc(O)ccc5C4CC[C@]23C)c1C (stereo partly specified) | 1.18 µM | 5.3 µM | 0.493 µM | 15 µM | 0.618 µM | > 45.1 µM | 1.09 µM | > 43.8 µM | 0.461 µM | > 50 µM | 0.235 µM | 2.23 µM | 0.267 µM | > 50 µM | 1.11 µM | 8.88 µM | 5.02 µM | > 50 µM | 25.9 µM | > 50 µM |
| CC1(C)CC(C)(C)c2cc(NC(=S)Nc3ccc([N+](=O)[O-])cc3)ccc2S1 | 12.4 µM | 39.4 µM | 9.75 µM | 31.2 µM | 13.2 µM | 28.2 µM | 10.8 µM | 27.2 µM | 12.7 µM | 29.7 µM | 17.9 µM | > 53.9 µM | 10.8 µM | > 60 µM | 12.3 µM | 52.7 µM | 16.5 µM | 54.8 µM | 13.9 µM | 48.2 µM |
| NCCO/C=C/C(N)C(=O)O (stereo unspecified) |  | > 100 µM |  | > 100 µM |  | > 100 µM |  | > 100 µM |  | > 100 µM |  | > 100 µM |  | > 100 µM |  | > 100 µM |  | > 100 µM |  | > 100 µM |
| CC(C)(C)C[C@H]1N[C@@H](C(=O)NC2CCC(O)CC2)[C@H](c2cccc(Cl)c2F)[C@@]12C(=O)Nc1cc(Cl)ccc12 (stereo partly specified) | 0.646 µM | 11.1 µM | 8.68 µM | 21 µM | 3.8 µM | 14.1 µM | 3.46 µM | 13.6 µM | 3.15 µM | 14.2 µM | 4.05 µM | 17.3 µM | 4.15 µM | 18.7 µM | 0.778 µM | 16.4 µM | 11.2 µM | 23.8 µM | 14 µM | 33.9 µM |
| COc1cc2c(cc1C)NC(=O)/C2=C/c1ccnc2ccccc12 | 18.9 µM | > 50 µM | 18.4 µM | > 50 µM | 29.1 µM | > 50 µM | 25.3 µM | > 50 µM | 25.5 µM | > 50 µM | > 50 µM | > 50 µM | 6.34 µM | 33.6 µM | 20.8 µM | > 50 µM | 12.6 µM | > 50 µM | 15.6 µM | 41.2 µM |
| COc1cc2c(/C=C3\C(=O)Nc4ccccc43)c[nH]c2cc1C | 2.87 µM | > 40.8 µM | 0.306 µM | 11.8 µM | 0.294 µM | 15.8 µM | 0.227 µM | 1.65 µM | 0.0559 µM | 26.5 µM | < 0.0178 µM | 0.843 µM | 0.225 µM | 61.4 µM | < 0.0289 µM | 17.3 µM | 0.0856 µM | 3.21 µM | < 0.01 µM | 0.0736 µM |
| COC(=O)C(C(=O)C(=O)Nc1c(C)cccc1C(C)(C)C)c1nc2ccc(Cl)cc2[nH]c1=O (stereo unspecified) |  | > 100 µM |  | > 100 µM |  | > 100 µM |  | > 100 µM |  | > 100 µM |  | > 100 µM |  | > 100 µM |  | > 100 µM |  | > 100 µM |  | > 100 µM |
| O=C1/C(=C/c2ccccc2)Oc2cc(O)ccc21 |  | > 100 µM |  | > 100 µM |  | > 100 µM |  | > 100 µM |  | > 100 µM |  | > 100 µM |  | > 100 µM |  | > 100 µM |  | > 100 µM |  | > 100 µM |
| [N-]=[N+]=CC(=O)CCC(N)C(=O)O (stereo unspecified) | 8.31 µM | 219 µM | 1.45 µM | > 244 µM |  | > 250 µM |  | > 250 µM | 3.47 µM | > 141 µM | 10.6 µM | > 250 µM | 3.27 µM | > 250 µM | 2.78 µM | > 250 µM |  | 34.3 µM |  | > 245 µM |
| COc1cc2c(cc1OCCNC(=O)/C=C1\C[C@H]3C=Nc4cc(OCc5ccccc5)c(OC)cc4C(=O)N3C1)N=C[C@@H]1CCCN1C2=O | 22.9 µM | 66.1 µM | 2.19 µM | 5.49 µM | 17 µM | > 100 µM | 18.3 µM | > 100 µM | 36.8 µM | 81.6 µM | 10.4 µM | 28.8 µM | 2.78 µM | 13.6 µM | 22.3 µM | 52.3 µM | 25.1 µM | 73.1 µM | > 100 µM | > 100 µM |
| N#C/C(=C\c1ccc2[nH]ccc2c1)C(=O)NCCCCNC(=O)/C(C#N)=C/c1ccc2[nH]ccc2c1 |  | > 31.6 µM |  | > 31.6 µM |  | > 10 µM |  | > 31.6 µM |  | > 31.6 µM |  | > 31.6 µM |  | > 31.6 µM |  | > 100 µM |  | > 31.6 µM |  | > 10 µM |
